Test: mn = molality of the nth substance listed, in mol/kg
Details: 101.3 kPa, Liquid; for viscosity: Capillary tube (Ostwald / Ubbelohde) method

O=[N+]([O-])[O-].O=[N+]([O-])[O-].[Zn+2] [nitric acid, zinc salt] + O
Details | mass density [kg/m3] | speed of sound [m/s] | viscosity [mPa·s]
313.15 K, m1 = 0.3388 | – | 1540.3 | –
313.15 K, m1 = 0.6111 | – | 1548.3 | –
313.15 K, m1 = 0.6405 | – | 1550.9 | –
313.15 K, m1 = 1.113 | – | 1571.8 | –
313.15 K, m1 = 1.258 | – | 1580.9 | –
313.15 K, m1 = 1.551 | – | 1595.3 | –
313.15 K, m1 = 1.906 | – | 1613.8 | –
313.15 K, m1 = 2.145 | – | 1624.5 | –
313.15 K, m1 = 2.29 | – | 1630.2 | –
313.15 K, m1 = 2.292 | – | 1631.4 | –
313.15 K, m1 = 2.344 | – | 1634.6 | –
313.15 K, m1 = 2.91 | – | 1659.9 | –
313.15 K, m1 = 3.472 | – | 1683.4 | –
313.15 K, m1 = 4.075 | – | 1702.8 | –
313.15 K, m1 = 4.817 | – | 1727.1 | –
313.15 K, m1 = 5.224 | – | 1733.1 | –
313.15 K, m1 = 5.797 | – | 1742.3 | –
313.15 K, m1 = 6.34 | – | 1747.6 | –
313.15 K, m1 = 6.89 | – | 1751.5 | –
313.15 K, m1 = 7.349 | – | 1751.7 | –
313.3 K, m1 = 2.145 | 1277.4 | – | –
313.55 K, m1 = 0.1329 | 1011.2 | – | –
313.85 K, m1 = 0.6111 | 1080.1 | – | –
313.95 K, m1 = 1.906 | 1248.8 | – | –
313.95 K, m1 = 2.29 | 1293.8 | – | –
314 K, m1 = 5.8 | 1619.4 | – | –
314.1 K, m1 = 0.0875 | 1004.4 | – | –
314.15 K, m1 = 7.764 | 1746 | – | –
314.2 K, m1 = 2.344 | 1300 | – | –
314.25 K, m1 = 0.6405 | 1084 | – | –
314.35 K, m1 = 0.2466 | 1027.8 | – | –
314.35 K, m1 = 7.349 | 1722 | – | –
314.45 K, m1 = 0.3388 | 1041 | – | –
314.6 K, m1 = 2.91 | 1362 | – | –
314.7 K, m1 = 4.817 | 1542.3 | – | –
314.95 K, m1 = 1.551 | 1204.4 | – | –
314.95 K, m1 = 4.075 | 1477.2 | – | –
315.05 K, m1 = 1.113 | 1147.9 | – | –
315.05 K, m1 = 6.89 | 1692.9 | – | –
315.1 K, m1 = 3.472 | 1419.3 | – | –
315.9 K, m1 = 6.34 | 1655.7 | – | –
315.95 K, m1 = 0.1329 | 1010.2 | – | –
315.95 K, m1 = 7.349 | 1720.2 | – | –
316.15 K, m1 = 0.6111 | 1079 | – | –
316.2 K, m1 = 2.292 | 1292.7 | – | –
316.4 K, m1 = 0.6405 | 1082.8 | – | –
316.6 K, m1 = 5.224 | 1573.5 | – | –
316.75 K, m1 = 0.0875 | 1003.3 | – | –
316.8 K, m1 = 0.2466 | 1026.7 | – | –
316.8 K, m1 = 0.3388 | 1039.9 | – | –
316.85 K, m1 = 1.258 | 1166.1 | – | –
316.9 K, m1 = 1.551 | 1203.1 | – | –
317.15 K, m1 = 2.145 | 1274.9 | – | –
317.25 K, m1 = 1.113 | 1146.8 | – | –
317.5 K, m1 = 5.8 | 1616 | – | –
317.6 K, m1 = 7.764 | 1742.3 | – | –
317.65 K, m1 = 7.349 | 1718.4 | – | –
317.8 K, m1 = 2.29 | 1291.2 | – | –
317.9 K, m1 = 1.906 | 1246.3 | – | –
317.9 K, m1 = 2.344 | 1297.2 | – | –
318.15 K, m1 = 0.0875 | – | 1540.1 | –
318.15 K, m1 = 0.1329 | – | 1539.2 | 0.632
318.15 K, m1 = 0.2466 | – | 1542.8 | 0.655
318.15 K, m1 = 0.3388 | – | 1544.7 | 0.676
318.15 K, m1 = 0.6111 | – | 1555.1 | 0.738
318.15 K, m1 = 0.6405 | – | 1557.5 | 0.745
318.15 K, m1 = 1.113 | – | 1574.6 | 0.873
318.15 K, m1 = 1.258 | – | 1583.5 | 0.926
318.15 K, m1 = 1.551 | – | 1597.5 | 1.014
318.15 K, m1 = 1.906 | – | 1606.7 | 1.169
318.15 K, m1 = 2.145 | – | 1623.3 | 1.287
318.15 K, m1 = 2.29 | – | 1629.6 | 1.35
318.15 K, m1 = 2.292 | 1291.3 | 1631.3 | –
318.15 K, m1 = 2.344 | – | 1633.9 | 1.366
318.15 K, m1 = 2.91 | – | 1657.1 | 1.68
318.15 K, m1 = 3.472 | – | 1678.7 | 2.088
318.15 K, m1 = 4.075 | – | 1696.7 | 2.588
318.15 K, m1 = 4.817 | – | 1717.9 | 3.383
318.15 K, m1 = 5.224 | – | 1724.7 | 3.857
318.15 K, m1 = 5.797 | – | 1732 | 4.807
318.15 K, m1 = 6.34 | – | 1735.3 | 5.725
318.15 K, m1 = 6.89 | – | 1740.7 | 6.968
318.15 K, m1 = 7.349 | – | 1740.9 | 8.113
318.25 K, m1 = 0.6111 | 1077.9 | – | –
318.25 K, m1 = 4.817 | 1539 | – | –
318.3 K, m1 = 2.91 | 1359.3 | – | –
318.45 K, m1 = 6.89 | 1689.4 | – | –
318.6 K, m1 = 0.1329 | 1009.1 | – | –
318.65 K, m1 = 4.075 | 1474.2 | – | –
318.8 K, m1 = 0.6405 | 1081.7 | – | –
318.8 K, m1 = 3.472 | 1416.3 | – | –
318.85 K, m1 = 1.551 | 1202 | – | –
319.05 K, m1 = 0.0875 | 1002.2 | – | –
319.05 K, m1 = 0.3388 | 1038.8 | – | –
319.15 K, m1 = 1.113 | 1145.7 | – | –
319.2 K, m1 = 0.2466 | 1025.6 | – | –
319.3 K, m1 = 6.34 | 1652.5 | – | –
319.3 K, m1 = 7.764 | 1740.4 | – | –
320.05 K, m1 = 5.224 | 1570.1 | – | –
320.5 K, m1 = 0.6111 | 1076.8 | – | –
320.6 K, m1 = 4.075 | 1472.7 | – | –
320.75 K, m1 = 0.1329 | 1008.1 | – | –
320.85 K, m1 = 5.8 | 1612.8 | – | –
321 K, m1 = 1.258 | 1163.6 | – | –
321 K, m1 = 7.349 | 1714.9 | – | –
321.05 K, m1 = 2.145 | 1272.2 | – | –
321.25 K, m1 = 1.113 | 1144.5 | – | –
321.3 K, m1 = 0.0875 | 1001.2 | – | –
321.3 K, m1 = 0.3388 | 1037.8 | – | –
321.35 K, m1 = 0.2466 | 1024.5 | – | –
321.4 K, m1 = 2.29 | 1288.5 | – | –
321.65 K, m1 = 2.344 | 1294.6 | – | –
321.7 K, m1 = 1.906 | 1243.6 | – | –
321.75 K, m1 = 4.817 | 1535.8 | – | –
321.85 K, m1 = 6.89 | 1685.8 | – | –
322.05 K, m1 = 2.292 | 1288.5 | – | –
322.05 K, m1 = 2.91 | 1356.4 | – | –
322.4 K, m1 = 0.6111 | 1075.8 | – | –
322.5 K, m1 = 3.472 | 1413.3 | – | –
322.55 K, m1 = 7.764 | 1736.9 | – | –
322.6 K, m1 = 6.34 | 1649 | – | –
322.75 K, m1 = 1.551 | 1199.5 | – | –
322.95 K, m1 = 0.6405 | 1079.6 | – | –
323.15 K, m1 = 0.0875 | – | 1545.6 | –
323.15 K, m1 = 0.1329 | – | 1544.6 | 0.58
323.15 K, m1 = 0.2466 | – | 1547.7 | 0.601
323.15 K, m1 = 0.3388 | – | 1551.5 | 0.621
323.15 K, m1 = 0.6111 | – | 1560.9 | 0.679
323.15 K, m1 = 0.6405 | – | 1561 | 0.686
323.15 K, m1 = 1.113 | – | 1577.8 | 0.804
323.15 K, m1 = 1.258 | – | 1585.2 | 0.853
323.15 K, m1 = 1.551 | – | 1598.3 | 0.935
323.15 K, m1 = 1.906 | – | 1611 | 1.077
323.15 K, m1 = 2.145 | – | 1622.9 | 1.183
323.15 K, m1 = 2.29 | – | 1630 | 1.245
323.15 K, m1 = 2.292 | – | 1631.1 | –
323.15 K, m1 = 2.344 | – | 1628.1 | 1.254
323.15 K, m1 = 2.91 | – | 1651.1 | 1.537
323.15 K, m1 = 3.472 | – | 1675.6 | 1.908
323.15 K, m1 = 4.075 | – | 1690.4 | 2.349
323.15 K, m1 = 4.817 | – | 1707.1 | 3.051
323.15 K, m1 = 5.224 | – | 1716.7 | 3.464
323.15 K, m1 = 5.797 | – | 1723.6 | 4.283
323.15 K, m1 = 6.34 | – | 1724.9 | 5.066
323.15 K, m1 = 6.89 | – | 1729.5 | 6.121
323.15 K, m1 = 7.349 | – | 1729.7 | 7.071
324.25 K, m1 = 7.764 | 1734.9 | – | –

— the NIST ThermoML archive (doi:10.1021/je0302001)
